Experimental data from PMC6131539, “Behavioral Effects of a Potential Novel TAAR1 Antagonist” (Frontiers in Pharmacology, 2018).

Tests used:
[1] = test system: C57BL/6J mice; experiment: Basal locomotor activity in C57BL/6J mice; format: in vivo
Experimental: (§1) Experimentally naïve mice, of at least 12 weeks of age, were used for all behavioral experiments. The mice were randomly assigned to treatment or control groups, balanced by sex and weight. Locomotor activity was assessed using the automated locomotor analysis monitors (Omnitech Electronics, Columbus, OH, United States). The apparatus included four open field monitors. Each Open Field monitor consisted of sets of 16 light beams arrayed in the horizontal X and Y axes. The hardware detected beams broken by the animal, which allowed the software to determine the location of the mouse in the cage. Total distance covered by mice was used to characterize locomotor activity of the animals. The monitors were divided into four compartments (20 cm × 20 cm). Animals were tested individually for defined periods with 5-min intervals. The mice were first weighed and then placed into the apparatus, allowing for 30 min habituation. Following the habituation, the mice were removed from the al apparatus and injected with drugs (see below for administration) or vehicle and returned immediately to the locomotor chamber. The locomotor activity was then measured for additional 1 h. After the experiments, the animals were euthanized by cervical dislocation.
All drug solutions were prepared freshly on the day of the experiment and injected i.p. at the volume of 10 ml/kg. […] Amphetamine was dissolved in 0.9% saline at a concentration of 0.2 mg/mL.
In order to assess the effects of compound 22 on basal locomotor activity, C57BL/6 mice were injected with doses of 5 and 30 mg/kg of compound 22 or vehicle (Figure 1). At the dose of 5 mg/kg, compound 22 inhibited basal locomotor activity by 58% (^∗p = 0.02). Although not significant, there was a trend toward a decrease in locomotor activity at the dose of 30 mg/kg as well (26% decrease, p = 0.15).
FIGURE 1 In vivo studies with compound 22 on basal locomotor activity. Wild type C57BL/6J mice were first habituated for 30 min followed by co-injection of saline or compound 22 at a dose of 5 or 30 mg/kg. The locomotor activity was assessed for 60 min after injection. […]

[2] = test system: C57BL/6J mice; experiment: Stereotypic counts, co-injection with amphetamine, C57BL/6J mice; format: in vivo; conditions: 5 and 20 mg/kg co-administered with amphetamine 2 mg/kg; sum over 60 min
Experimental: as §1, with “Following the habituation, the mice were removed from the al apparatus and injected with drugs (see below for administration) or vehicle and returned immediately to the locomotor chamber.” left out, “After the experiments, the animals were euthanized by cervical dislocation.” left out
(A) Wild type C57BL/6J mice were first habituated for 30 min followed by the co-injection of amphetamine (2 mg/kg) and saline or compound 22 at doses 5, 15, 20, 25, 30, and 50 mg/kg. The locomotor activity was assessed for 60 min after the injection. Sum of stereotypic counts assessed over 60 min after the injection of amphetamine and compound 22. […] The locomotor activity was assessed for 60 min after the injection. […]

[3] = test system: TAAR1-KO mice; experiment: Cocaine-induced locomotor activity, co-injection, TAAR1-KO mice; format: in vivo; conditions: 5, 15 and 25 mg/kg co-injected with cocaine 10 mg/kg
Experimental: The Taarl^-/- (TAAR1-KO) mice were obtained from Lundbeck ([Wolinsky et al., 2007]). All wild type (WT) and TAAR1-KO mice used for experiments were generated from TAAR1-KO heterozygous mice in a C57BL/6J x 129S1/Sv mixed background.
as §1, with “Following the habituation, the mice were removed from the al apparatus and injected with drugs (see below for administration) or vehicle and returned immediately to the locomotor chamber.” left out, “After the experiments, the animals were euthanized by cervical dislocation.” left out
The locomotor activity was assessed for 60 min following the injection. […]

[4] = test system: WT littermates (C57BL/6J x 129S2/Sv); experiment: Stereotypic counts, co-injection with amphetamine, WT littermates; format: in vivo, mice; conditions: any dose (2.5, 5, 15 mg/kg) co-injected with amphetamine 2 mg/kg
Experimental: as §1, with “Following the habituation, the mice were removed from the al apparatus and injected with drugs (see below for administration) or vehicle and returned immediately to the locomotor chamber.” left out, “After the experiments, the animals were euthanized by cervical dislocation.” left out
Supplementary file Image_2.TIF: FIGURE S2 In vivo studies with TAAR1-KO mice and compound 22 on stereotypic counts activity. […] The sum of stereotypic counts was assessed over 60 min after the injection of amphetamine and compound 22 in WT (solid bars) or TAAR1-KO mice (spotted bars). […] The sum of stereotypic counts was assessed over 60 min following the injection in WT (solid bars) or TAAR1-KO mice (dotted bars). […]

Structure (SMILES): Clc1ccc(CNCc2ccc(Cn3cncn3)cc2)c(Cl)c1 [compound 22]
- inhibition of basal locomotor activity ([1]; 5 mg/kg i.p. alone, sum over 60 min vs saline, p = 0.02): 58%
- decrease in basal locomotor activity ([1]; 30 mg/kg i.p. alone, sum over 60 min vs saline, not significant, p = 0.15): 26%
- effect on locomotor activity when administered alone ([1]; 5 and 30 mg/kg i.p., administered alone): did not stimulate locomotor activity
- stereotypic counts [2]: statistically significant increase in stereotypic counts
- effect on locomotor stimulating effects of cocaine [3]: significantly potentiate
- stereotypic counts [4]: did not have statistically enhanced stereotypic counts
